# Experimental data reported in US8575197B2, “Pyrolinone derivative and pharmaceutical composition comprising the same” (Shionogi & Co., Ltd., priority 2008, dated 2013).
# Target: human P2X3 receptor (Homo sapiens (Human), UniProt P56373)
# Test: P2X3 receptor inhibition, ATP-evoked Fluo-3 calcium fluorescence (FDSS 3000)
# Assay type: cell-based
# Conditions: C6BU-1 cell transfected with human P2X3 receptor gene; ATP-evoked Fluo-3 fluorescence
# Outline: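 C6BU-1 cells stably transfected with human P2X3, loaded with 4 μM Fluo-3-AM for 1 h at 37 °C in HEPES buffer pH 7.5 with probenecid. Compound added 5 min before 40 nM ATP solution; fluorescence followed 3 min. IC50 from ratio of peak post-ATP to baseline fluorescence.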
# Chain of human P2X3 receptor (P56373 whole entry): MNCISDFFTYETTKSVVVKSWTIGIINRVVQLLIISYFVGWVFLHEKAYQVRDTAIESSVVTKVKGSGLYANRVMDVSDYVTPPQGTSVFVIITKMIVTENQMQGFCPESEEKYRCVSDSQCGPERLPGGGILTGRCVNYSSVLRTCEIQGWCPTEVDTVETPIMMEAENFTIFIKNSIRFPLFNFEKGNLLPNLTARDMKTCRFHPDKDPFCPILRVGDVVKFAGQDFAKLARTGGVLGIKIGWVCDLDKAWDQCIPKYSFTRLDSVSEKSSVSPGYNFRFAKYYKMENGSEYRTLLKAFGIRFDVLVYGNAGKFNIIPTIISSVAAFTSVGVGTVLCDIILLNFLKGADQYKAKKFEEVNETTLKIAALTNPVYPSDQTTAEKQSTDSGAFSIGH
row,SMILES,IC50
1,COCCOc1ncccc1C1C(C(=O)C(C)C)=C(O)C(=O)N1c1ccc(-c2csc(C)c2)cc1 (centres unmarked) [Compound I-268],32 nM
2,COc1ccccc1C1c2c(C(C)(C)C)nn(C(=O)OC(C)(C)C)c2C(=O)N1c1ccc(Br)cc1 (centres unmarked) [II-211],135 nM
3,Cc1nc(-c2ccc(N3C(=O)C(O)=C(C(=O)CC4CCCC4)C3C3CCCCC3)cc2)no1 (centres unmarked) [Compound I-438],490 nM
4,Cc1cc(-c2ccc(N3C(=O)C(O)=C(C(=O)C(C)C)C3c3ccccc3N3CCCC3=O)cc2)cs1 (centres unmarked) [Compound I-598],785 nM
5,COCCOc1ncccc1C1C(C(=O)C2CCCC2)=C(O)C(=O)N1c1ccc(-c2noc(C)n2)cc1 (centres unmarked) [Compound I-523],351 nM
6,COc1ccccc1C1C(C(=O)C(C)C)=C(O)C(=O)N1c1ccc(-c2ccc(C)s2)cc1 (centres unmarked) [Compound I-259],30 nM
7,COCc1ccccc1[C@@H]1C(C(=O)CC(C)C)=C(O)C(=O)N1c1ccc(-c2ccsc2)cc1 [Compound I-356],7 nM
8,COc1ccccc1C1c2c(C(C)(C)C)n[nH]c2C(=O)N1c1ccc(-c2cccs2)cn1 (centres unmarked) [II-256],18 nM
9,COCc1ccccc1C1C(C(=O)C(C)C)=C(O)C(=O)N1c1ccc(-c2ccc(C)s2)cc1 (centres unmarked) [Compound I-266],25 nM
10,COCCCOc1ccccc1C1C(C(=O)C(C)C)=C(O)C(=O)N1c1ccc(-c2noc(C)n2)cc1 (centres unmarked) [Compound I-491],155 nM
11,COCCN(C)C(=O)c1ccccc1C1C(C(=O)C(C)C)=C(O)C(=O)N1c1ccc(-c2ccc(C)o2)cc1 (centres unmarked) [Compound I-586],254 nM
12,Cc1ccc(-c2ccc(N3C(=O)C(O)=C(C(=O)C(C)C)C3c3cccnc3OC(C)C)cc2)o1 (centres unmarked) [Compound I-479],10 nM
13,COCCOc1ncccc1[C@@H]1C(C(=O)C(C)C)=C(O)C(=O)N1c1ccc(-c2ccc(C)s2)cc1 [Compound I-472],7 nM
14,COc1ncccc1C1c2c(C(C)C)n[nH]c2C(=O)N1c1ccc(-c2ccsc2)cc1 (centres unmarked) [II-048],57 nM
15,Cc1ccc(-c2ccc(N3C(=O)C(O)=C(C(=O)CC(C)C)C3c3ccccc3C(=O)N(C)C)cc2)s1 (centres unmarked) [Compound I-406],29 nM
16,COCCOc1ncccc1C1C(C(=O)C(C)C)=C(O)C(=O)N1c1ccc(-c2cccs2)cc1 (centres unmarked) [Compound I-228],15 nM
17,COCOc1ccccc1C1C(C(=O)C(C)C)=C(O)C(=O)N1c1ccc(-c2ccco2)cc1 (centres unmarked) [Compound I-230],18 nM
18,COc1ccc(F)cc1C1c2c(C(C)(C)C)n[nH]c2C(=O)N1c1ccc(-c2ccon2)cc1 (centres unmarked) [II-062],112 nM
19,Cc1ncccc1C1c2c(C(C)(C)C)n[nH]c2C(=O)N1c1ccc(-c2ccsc2)cc1 (centres unmarked) [II-123],431 nM
20,COc1ccccc1C1c2c(C(C)(C)CO)n[nH]c2C(=O)N1c1ccc(-c2ccco2)cn1 (centres unmarked) [II-265],31 nM
21,CC(C)CC(=O)C1=C(O)C(=O)N(c2ccc(-c3ccon3)cc2)C1c1ccccc1OC(C)C (centres unmarked) [Compound I-306],54 nM
22,Cc1nc(-c2ccc(N3C(=O)C(O)=C(C(=O)C(C)C)C3c3cccnc3OCCO)cc2)no1 (centres unmarked) [Compound I-178],374 nM
23,Cc1cc(-c2ccc(N3C(=O)C(O)=C(C(=O)CC(C)C)C3c3ccccc3C(=O)N3CCOCC3)cc2)cs1 (centres unmarked) [Compound I-505],168 nM
24,CC(C)OCc1ccccc1C1C(C(=O)C(C)C)=C(O)C(=O)N1c1ccc(-c2ccon2)cc1 (centres unmarked) [Compound I-540],496 nM
25,COc1ccccc1C1c2c(C(C)(C)CO)n[nH]c2C(=O)N1c1ccc(-c2cc[nH]c2)cc1 (centres unmarked) [II-232],16 nM
26,COCCOc1cc(F)ccc1C1C(C(=O)CC(C)C)=C(O)C(=O)N1c1ccc(-c2ccsc2)cc1 (centres unmarked) [Compound I-364],9 nM
27,CNC(=O)COc1ccccc1C1C(C(=O)C(C)C)=C(O)C(=O)N1c1ccc(-c2ccsc2)cc1 (centres unmarked) [Compound I-188],22 nM

row,SMILES,IC50
1,COCc1ccccc1C1C(C(=O)C2CCCC2)=C(O)C(=O)N1c1ccc(-c2ccsc2)cc1 (centres unmarked) [Compound I-516],33 nM
2,COc1ncccc1C1c2c(C(C)(C)CO)n[nH]c2C(=O)N1c1ccc(-c2ccco2)cc1 (centres unmarked) [II-111],91 nM
3,Cc1nc(-c2ccc(N3C(=O)C(O)=C(C(=O)CC(C)C)C3c3ccccc3OC(C)C)cc2)no1 (centres unmarked) [Compound I-317],73 nM
4,COCc1ccccc1C1C(C(=O)C(C)C)=C(O)C(=O)N1c1ccc(-c2ccccc2)s1 (centres unmarked) [Compound I-283],144 nM
5,COc1ccccc1C1c2c(C(C)(C)C)n[nH]c2C(=O)N1c1ccc(-c2cccs2)nc1 (centres unmarked) [II-255],3 nM
6,CN(C)C(=O)c1ccccc1C1C(C(=O)CC(C)(C)C)=C(O)C(=O)N1c1ccc(-c2ccsc2)cc1 (centres unmarked) [Compound I-466],260 nM
7,COCCOCc1ncccc1C1c2c(C(C)(C)C)n[nH]c2C(=O)N1c1ccc(-c2ccsc2)cc1 (centres unmarked) [II-277],274 nM
8,COC(=O)COc1ccccc1C1C(C(=O)C(C)(C)C)=C(O)C(=O)N1c1ccc(-c2cccs2)cc1 (centres unmarked) [Compound I-113],12 nM
9,COC(=O)Nc1ccccc1C1c2c(C(C)C)n[nH]c2C(=O)N1c1ccc(-c2ccsc2)cc1 (centres unmarked) [II-095],12 nM
10,COCc1ccccc1C1C(C(=O)C(C)C)=C(O)C(=O)N1c1ccc(-c2noc(C)n2)cc1 (centres unmarked) [Compound I-310],337 nM
11,CCOCOc1ccccc1C1C(C(=O)C(C)C)=C(O)C(=O)N1c1ccc(-c2ccsc2)cc1 (centres unmarked) [Compound I-544],8 nM
12,COc1ccc(C(=O)C2=C(O)C(=O)N(c3ccc(-c4ccco4)cc3)C2C2CCCCC2)cc1 (centres unmarked) [Compound I-015],12 nM
13,Cc1nc(-c2ccc(N3C(=O)C(O)=C(C(=O)C(C)C)C3c3cccnc3N3CCOCC3)cc2)no1 (centres unmarked) [Compound I-524],696 nM
14,COc1ncccc1C1C(C(=O)CC(C)C)=C(O)C(=O)N1c1ccc(-c2csc(C)c2)cc1 (centres unmarked) [Compound I-371],447 nM
15,COc1ccc(C2C(C(=O)C(C)C)=C(O)C(=O)N2c2ccc(-c3ccsc3)cc2)cc1 (centres unmarked) [Compound I-285],648 nM
16,COc1ccccc1[C@@H]1C(C(=O)C(C)C)=C(O)C(=O)N1c1ccc(-c2ccoc2)cc1 [Compound I-202],40 nM
17,CC(C)(C)c1n[nH]c2c1C(c1ccccc1OCCO)N(c1ccc(-c3ccon3)cc1)C2=O (centres unmarked) [II-100],31 nM
18,COc1ccccc1C1c2c(C(C)(C)c3ccccc3)n[nH]c2C(=O)N1c1ccc(-c2ccon2)cc1 (centres unmarked) [II-199],113 nM
19,CNC(=O)c1ncccc1C1C(C(=O)CC(C)C)=C(O)C(=O)N1c1ccc(-c2ccc(C)s2)cc1 (centres unmarked) [Compound I-573],123 nM
20,COCCOc1ncccc1C1c2c(C(C)C)n[nH]c2C(=O)N1c1ccc(-c2ccsc2)cc1 (centres unmarked) [II-278],13 nM
21,CC(C)CC(=O)C1=C(O)C(=O)N(c2ccc(-c3ccoc3)cc2)C1c1ccccc1C(=O)N(C)C (centres unmarked) [Compound I-430],153 nM
22,COc1ccccc1C1c2c(C(C)(C)C)n[nH]c2C(=O)N1c1ccc(-c2ccsc2)cn1 (centres unmarked) [II-248],13 nM
23,COCCOc1ccccc1C1C(C(=O)C(C)C)=C(O)C(=O)N1c1ccc(-c2cc(C)on2)cc1 (centres unmarked) [Compound I-481],378 nM
24,COC(=O)COc1ccccc1C1c2c(C(C)(C)C)n[nH]c2C(=O)N1c1ccc(-c2cccs2)cc1 (centres unmarked) [II-021],9 nM
25,COc1ccccc1C1c2c(C(C)(C)CO)n[nH]c2C(=O)N1c1ccc(-c2ccco2)cc1 (centres unmarked) [II-215],15 nM
26,COCOc1ccccc1C1C(C(=O)C(C)C)=C(O)C(=O)N1c1ccc(-c2noc(C)n2)cc1 (centres unmarked) [Compound I-311],121 nM
